The conditions of experiment [1]: wild type mouse.
Method: Mice were sensitized by intranasal instillation of Aspergillus and aeroallogen challenged one month later with aerosol saline (control) or Aspergillus (antigen challenged). At 2 days before the one-month aeroallogen challenge, one group of antigen-challenged animals received i.p. 0.5 mL of 0.1% KSCN and 0.1% KSCN in drinking water. Three days after the aeroallogen challenge, both groups were challenged with intranasal inoculums of Candida and 6 hours later subjected to BAL and the content of supernatant protein Br—Y determined using stable isotope dilution GC-MS.
The conditions of experiment [2]: SCN^− supplementation.
Method: Four experimental groups, each comprised of 15 guinea pigs are utilized for these studies.
The first group is the control and receives KCl in lieu of KClO4 to control for the effect of potassium. […] Perchlorate treatments are initiated three days prior to OVA aerosol challenges and maintained throughout the experimental period until the time of analysis. Specimens are analyzed according to the protocol described. The experimental groups are compared using an appropriate statistical method (i.e., parametric or non-parametric) based upon ANOVA.
All four groups are then pooled to determine correlations between (i) methacholine challenge PC50 and (ii) BAL and whole lung Br—Y and NO2—Y levels. Correlations were also determined between (i) histologic severity and (ii) BAL and/or whole lung Br—Y and NO2—Y levels.
The test system of another experiment is EPO or LPO. Particulars: O2^.− generating system. Here is the method:
NO decay was determined in phosphate buffer in the absence versus presence of plasma levels of halides using an NO-selective electrode. NO-saturated buffer was added to a continuously stirred reaction mixture.

For another experiment, the system named is LPO, or EPO. Particulars: 100 μM SCN^−, LPO or EPO present.
Experiment [3] addresses EPO (Homo sapiens, UniProt P11678). Particulars: physiologic concentrations (20-120 μM) of SCN^−; 100 μM Br, 100 mM Cl^−. An excerpt:
All other reagents were obtained from Sigma Chemical Co. (St. Louis, Mo.).

For experiment [4] the following is noted: intranasal 1 mM SCN^−, 1 mM Br^− or 100 μM NO2^−.
Method: The following experiment is performed to determine if by directly manipulating the relative substrate halide composition of the intrabronchial luminal contents, the severity of the resulting EPO-mediated oxidative damage and so the severity of the induced pathologies can be influenced. […] From the day before initiation of aerosol ovalbumin challenge, four groups of guinea pigs (n=15) are subjected to intranasal instillation of 300 μL of PBS (100 mM Cl^−), PBS+1 mM NaSCN, PBS+1 mM NaBr, or PBS+100 μmol NaNO2 in each nostril. Intranasal instillation is performed every 6 hours until the time of analysis. The numbers of animals in each group is determined from power calculations assuming unpaired design. A group size of 15 animals per group allows for detecting a change in Br—Y, PC50, and histologic severity index amongst the OVA-challenged animal of ≧125% of the S.D. of the experimental groups with 90% power, P<0.05.
As for Section VI, Example 10, pulmonary functions, and chloro-, bromo-, and NO2—Y in BAL and whole lung homogenates are determined. […] Multiple linear regression is used to determine factors responsible for changes in PC50 or histologic severity of airway damage. PC50 or histologic severity is treated as a continuous variable and correlated Br—Y and NO2—Y levels in BAL and whole lung by multiple regression.
Experiment [5] relates to EPO. Here is the method:
The EPO/NO2^−/H2O2 system generates reactive nitrogen species that generates bioactive eicosanoids, e.g. hydroxyeicosatetraenoic acids (HETEs) from unilamellar vesicles comprised of 1-palmitoyl-2-arachidonyl-sn-glycero-3-phosphocholine (PAPC). […] Reaction mixtures consisting of 0.8 mg lipid/mL PAPC, 60 nM EPO, 100 μM NO2^−, 100 ng/mL glucose oxidase, 100 μg/mL glucose were incubated for 2 hours at 37° C. HETEs were analyzed by lipid extraction and HPLC with on-line electrospray ionization tandem mass spectometry (LC/MS/MS).

Chain of EPO (Homo sapiens, UniProt P11678) (P11678 251-715 limits assumed): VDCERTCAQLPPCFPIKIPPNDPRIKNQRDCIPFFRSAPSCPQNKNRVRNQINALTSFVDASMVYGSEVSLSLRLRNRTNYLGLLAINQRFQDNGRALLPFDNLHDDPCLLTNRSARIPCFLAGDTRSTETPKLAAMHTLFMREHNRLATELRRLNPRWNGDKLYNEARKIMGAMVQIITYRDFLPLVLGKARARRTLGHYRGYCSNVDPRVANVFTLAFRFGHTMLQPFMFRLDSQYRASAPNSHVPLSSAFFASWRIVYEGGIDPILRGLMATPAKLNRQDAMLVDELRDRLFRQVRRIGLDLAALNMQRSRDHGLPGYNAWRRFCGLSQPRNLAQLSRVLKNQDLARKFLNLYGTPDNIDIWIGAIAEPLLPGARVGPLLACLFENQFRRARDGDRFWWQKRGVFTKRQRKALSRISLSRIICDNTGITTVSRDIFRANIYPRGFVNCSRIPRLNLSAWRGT
Chain of EPO (Homo sapiens, UniProt P11678) (P11678 140-250 limits assumed): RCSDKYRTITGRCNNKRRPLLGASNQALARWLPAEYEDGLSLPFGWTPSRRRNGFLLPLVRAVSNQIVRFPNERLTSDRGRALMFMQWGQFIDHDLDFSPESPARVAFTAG

As for `N#CS` [SCN^−, thiocyanate], the “BrY reduced from w.t. antigen-challenged” value in experiment [1] (SCN supplemented) is on record as “BrY 86% reduced”. This compound gave a Lavage fluid bromotyrosine in experiment [1] (antigen challenge, 0.1% KSCN i.p. and in drinking water) of 196 ± 103 μmol Br—Y/μmol Y. Besides, the “Br—Y and NO2—Y levels, functional and histologic pulmonary pathology” value in experiment [2] is listed as “will reduce”. Further, the “peroxidase-mediated NO consumption” value in the experiment with EPO or LPO was “attenuation/inhibition of peroxidase-mediated NO consumption”. In the experiment on LPO, or EPO, the “relaxation of preconstricted bronchial rings in response to NO” value is “do so when high physiologic concentrations of SCN^− are added”. The “mean lung Br—Y/Y” value (NaSCN i.p. and 0.2% in drinking water, OVA challenge) came to 0.93 mmol/mol. Further, the “rise of Br—Y/Y after OVA challenge” value (dietary supplementation with SCN^− prior to OVA challenge) is “completely abrogated”. Further, the “EPO production of HOBr” value on EPO [3] was “blocked”. For the same compound, the “levels of Br—Y and NO2—Y and severity of resulting asthma” value in experiment [4] is listed as “ameliorates”. Moreover, the “HETE generation from PAPC vesicles by EPO/SCN^−/H2O2 system” value with EPO [5] (100 μM SCN^−) is listed as “no detectable HETEs”. In the experiment on EPO [5] (physiological concentration of SCN^−), the “HETE generation from PAPC vesicles by EPO/NO2^−/H2O2 system” value was “severely attenuated”.
